According to US7332596B1 (priority 1999, dated 2008):
Where no end group is shown, it is not given here.

What was measured:
[1] = Freshly isolated potato intercellular wash fluid (pIWF); conditions: Russet Burbank potato, up to 5 minutes

Row | Compound | IC50 (Fusarium culmorum) | IC50 (Phytophthora infestans) | cleaved bond [1] | other results
1 | CSCC[C@H](N)C(=O)N[C@@H](CCCNC(=N)N)C(=O)N[C@@H](C)C(=O)N[C@@H](CCCCN)C(=O)N[C@@H](Cc1c[nH]c2ccccc12)C(=O)N[C@@H](CCCNC(=N)N)C(=O)N[C@@H](CCCCN)C(=O)N[C@@H](CCCCN)C(=O)N[C@@H](CCCNC(=N)N)C(=O)N[C@H](C(=O)N[C@@H](CCCNC(=N)N)C(=O)N[C@@H](CCCNC(=N)N)C(=O)N[C@@H](CC(C)C)C(=O)N[C@@H](CCCCN)C(=O)N[C@@H](CCCNC(=N)N)C(=O)N[C@@H](CCCCN)C(=O)N[C@@H](CCCNC(=N)N)C(=O)N[C@@H](CCCNC(=N)N)C(=O)N[C@@H](CCCCN)C(=O)N[C@H](C(=O)N[C@@H](CCCNC(=N)N)C(=O)N[C@@H](C)C(=O)N[C@@H](CCCNC(=N)N)C(=O)N[C@@H](CO)C(=O)N[C@@H](CCCCN)C(=O)O)C(C)C)[C@@H](C)O [YL41] | 1200 nM | 4500 nM |  | 
2 | MAVPKKRTSISKKRIRKKIWKRKGYWTSLKAFSLGKSLSTGNSKSFFVQQNK [BL32] | 1600 nM | 6600 nM |  | 
3 | MKIRASIRRISGKSRPIRRRKRVMIISSNPRHKQKQG [BL36] | 2300 nM | 3400 nM |  | 
4 | MNSHRLPGKGRRMGPIMGHTMHYRRMIITLQSSYSIPPLRKKRT [SL23] | 2500 nM | 7700 nM |  | 
5 | VKVGLATKAERASRQQRKQRKNRQKTLMGTAKVKGAKAKK |  |  | A-T and L-M and M-G and A-K | 
6 | VKVGLATKAERASRQQRKQRKNRQKTLMGTAQVKGAKAKK |  |  | A-T and L-M and M-G and A-Q | 
7 | VKVGLATKAERASRQQRKQRKNRQKTLRGTAKVKGAKAKK |  |  | A-T and L-R and R-G and A-K | 
8 | VKVGLATKAERASRQQRKQRKNRQKTLRGTAKVKGAKAKK [Synthetic FCWP1] |  |  |  | IC50 F. culmorum High salt (Fusarium culmorum): 85 µg/mL; IC50 F. culmorum Low salt (Fusarium culmorum): 6 µg/mL; IC50 P. infestans High salt (Phytophthora infestans): 20 µg/mL; IC50 P. infestans Low salt (Phytophthora infestans): 10 µg/mL; IC50 S. nodorum High salt (S. nodorum): >170 µg/mL; IC50 S. nodorum Low salt (S. nodorum): 22 µg/mL
9 | VKVGLATKAERASRQQRKQRKNRQKTLRGTAQVKGAKAKK |  |  | A-T and L-R and R-G and A-Q | 
10 | VKVGLATKAERASRQQRKQRKNRQKTLRGTRKVKGAKAKK |  |  | A-T and L-R and R-G and R-K | 
11 | VKVGLATKAERASRQQRKQRKNRQKTRRGTAKVKGAKAKK |  |  | R-R and G-T and A-K and A-T | 
12 | VKVGLATKAERASRQQRKQRKNRQKTRRGTRKVKGAKAKK |  |  | A-T and T-R and G-T and R-K | 
